Test system: SN12C-CSCG and ACHN-CSCG xenograft tumors
Test: Subcutaneous xenograft tumor growth, parental tumors
Assay type: in vivo, SCID mice
Conditions: 0.1 mg/kg CCI-779 daily
Procedure: FIGS. 1A-1E. Effects of VHL knockdown on sensitivity to CCI-779. (a) Immunoblotting of lysates derived from shRNA and control (empty vector, V) in SN12C, using antibodies against VHL (both isoforms detected), HIF-1α, HIF-2α, GLUT-1, CA-IX and β-Actin (as a loading control). (b) SN12C-CSCG and SN12C-VHLshRNA cells (1×10^5) were cultured in 10% serum rich media, in the presence of vehicle, 1 or 10 nM of CCI-779 for 5 days. Cell growth was measured by cell counts (n=3). […] (c) SN12C-CSCG (C1) and SN12C-CSCG shVHL RNA (C2) cells were injected into SCID mice at a dose of 1×10^6 cells per mouse (n=30). […] Phosphorylated-S6 protein in SN12C-CSCG and SN12C-VHL shRNA xenograft tumors treated with vehicle or 0.1 mg/kg of CCI-779 was measured by immunoblot C3 and C4). […]
For in vitro experiments, cells (5×10^4) were plated and treated with 1 and 10 nM CCI-779 (kind gift of J. Gibbons, Wyeth) or vehicle (ethanol). On day 5-post treatment, cells were trypsinized, resuspended in DMEM with 10% FBS and counted using the VI CELL counter (Beckman Coulter), according to the manufacturer's instructions. […] In vivo tumorigenicity was measured by injection of 5×10^5 SN12C-CSCG, ACHN-CSCG, SN12C-CSCG-VHLshRNAi, ACHN-CSCG-VHLshRNAi, SN12C-CSCG-VHLshRNAi-pBABE, SN12C-CSCG-VHLshRNAi-pBABE-HA-HIF-2α (P405A; P531A) cells in 100 μl of Matrigel (Collaborative Biomedical) subcutaneously into the flanks of SCID mice. […]

Structure (SMILES): CO[C@H]1C[C@@H]2CC[C@@H](C)[C@@](O)(O2)C(=O)C(=O)N2CCCC[C@H]2C(=O)O[C@H]([C@H](C)C[C@@H]2CC[C@@H](OC(=O)C(C)(CO)CO)[C@H](OC)C2)CC(=O)[C@H](C)/C=C(\C)[C@@H](O)[C@@H](OC)C(=O)[C@H](C)C[C@H](C)/C=C/C=C/C=C/1C [CCI-779]
- growth of the parental tumors: no effect
